{
  "source": "patent US20260374754A1",
  "about": "“N-((ISOQUINOLIN-6-YL)METHYL)-1H-PYRAZOLE-4-CARBOXAMIDE DERIVATIVES AS PLASMA KALLIKREIN INHIBITORS FOR THE TREATMENT OF HEREDITARY ANGIODEMA” (Takeda Pharmaceutical Company Limited, priority 2022, published 2026)",
  "note": "Counter-ions that a name gives are not always drawn.",
  "data": [
    {"target": "human activated kallikrein enzyme (Homo sapiens, UniProt P03952)", "sequence (P03952 391-638 limits assumed)": "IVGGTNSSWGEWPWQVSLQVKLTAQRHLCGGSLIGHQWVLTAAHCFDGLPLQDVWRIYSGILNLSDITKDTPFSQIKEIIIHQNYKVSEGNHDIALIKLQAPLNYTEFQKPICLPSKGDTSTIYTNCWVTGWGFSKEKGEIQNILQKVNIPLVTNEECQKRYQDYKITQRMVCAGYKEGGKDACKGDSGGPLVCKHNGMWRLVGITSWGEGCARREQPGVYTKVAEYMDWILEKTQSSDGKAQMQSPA", "sequence (P03952 20-390 partner limits assumed)": "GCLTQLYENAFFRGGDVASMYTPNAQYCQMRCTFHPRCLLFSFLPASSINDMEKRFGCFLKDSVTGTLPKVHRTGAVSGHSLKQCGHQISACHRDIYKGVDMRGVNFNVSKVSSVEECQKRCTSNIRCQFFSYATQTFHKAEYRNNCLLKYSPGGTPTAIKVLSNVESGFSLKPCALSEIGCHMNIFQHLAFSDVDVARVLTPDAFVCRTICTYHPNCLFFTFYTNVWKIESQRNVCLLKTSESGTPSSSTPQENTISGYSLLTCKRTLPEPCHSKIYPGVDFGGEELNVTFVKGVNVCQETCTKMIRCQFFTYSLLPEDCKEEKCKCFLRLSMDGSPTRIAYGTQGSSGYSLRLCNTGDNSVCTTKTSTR", "assay": "Inhibition of human activated plasma kallikrein, fluorogenic PFR-AMC substrate, 500 pM enzyme format", "assay_type": "biochemical", "conditions": "500 pM activated kallikrein; 300 μM PFR-AMC; 30 min preincubation; 10 min room temperature; pH 7.5; read-out: Primary Dose Response Assay: Average EC50", "how_it_was_run": "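500 pM activated kallikrein preincubated 30 min at room temperature with inhibitors in pH 7.5 Tris/EDTA/NaCl buffer with PEG-400 and Triton X-100. Reaction started with 300 μM PFR-AMC, run 10 min at room temperature; AMC fluorescence read at ex 380/em 460 nm.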", "units": {"EC50": "nM"}, "values": [
      {"smiles": "Cc1cc2c(N)nccc2c(C)c1CNc1cc(OCc2ccc3nc(C)c(C)nc3c2)cnn1", "note": "[Example 418, 6-(((5-((2,3-dimethylquinoxalin-6-yl)methoxy)pyridazin-3-yl)amino)methyl)-5,7-dimethylisoquinolin-1-amine, formic acid salt]", "EC50": "< 1"},
      {"smiles": "Cc1cc2c(N)nccc2c(C)c1CNC(=O)c1cnn(CC(=O)Nc2ccccc2)c1", "note": "[Example 154, N-((1-amino-5,7-dimethylisoquinolin-6-yl)methyl)-1-(2-oxo-2-(phenylamino)ethyl)-1H-pyrazole-4-carboxamide]", "EC50": "100 to 1000"},
      {"smiles": "Cc1cc2c(N)nccc2c(C)c1CNc1cc(OCc2ccc(Cn3cccn3)cc2)c2c(c1)C(=O)N(C)C2", "note": "[Example I-468, 4-((4-((1H-pyrazol-1-yl)methyl)benzyl)oxy)-6-(((1-amino-5,7-dimethylisoquinolin-6-yl)methyl)amino)-2-methylisoindolin-1-one]", "EC50": "1 to 10"},
      {"smiles": "Cc1cc2c(N)nccc2c(C)c1CNc1cc(NCc2ccc(OC(C)(C)C(=O)N(C)C)cc2)ncn1", "note": "[Example 354, 2-(4-(((6-(((1-amino-5,7-dimethylisoquinolin-6-yl)methyl)amino)pyrimidin-4-yl)amino)methyl)phenoxy)-N,N,2-trimethylpropanamide, formic acid salt]", "EC50": "10 to 100"},
      {"smiles": "Cc1cc2c(Nc3cc(OCc4ccc(CC(=O)N(C)C)cc4)ncn3)nccc2c(C)c1CN", "note": "[Example I-467, 2-(4-(((6-((6-(aminomethyl)-5,7-dimethylisoquinolin-1-yl)amino)pyrimidin-4-yl)oxy)methyl)phenyl)-N,N-dimethylacetamide]", "EC50": "> 1000"},
      {"smiles": "Cc1cc2c(N)nccc2c(C)c1CNc1cc(OCc2cn3c(=O)n(C4CC4)ccc3n2)ncn1", "note": "[Example 397, 2-(((6-(((1-amino-5,7-dimethylisoquinolin-6-yl)methyl)amino)pyrimidin-4-yl)oxy)methyl)-6-cyclopropylimidazo[1,2-c]pyrimidin-5(6H)-one]", "EC50": "10 to 100"},
      {"smiles": "Cc1cc2c(N)nccc2c(C)c1CNc1nccc(OCc2ccc(Cn3ccccc3=O)cc2)n1", "note": "[Example I-478, 1-(4-(((2-(((1-amino-5,7-dimethylisoquinolin-6-yl)methyl)amino)pyrimidin-4-yl)oxy)methyl)benzyl)pyridin-2(1H)-one]", "EC50": "1 to 10"},
      {"smiles": "Cc1cc2c(N)nccc2c(C)c1CNC(=O)c1cnn(Cc2ccc(C3CC3)cc2)c1", "note": "[Example 29, N-((1-amino-5,7-dimethylisoquinolin-6-yl)methyl)-1-(4-cyclopropylbenzyl)-1H-pyrazole-4-carboxamide]", "EC50": "1 to 10"},
      {"smiles": "Cc1ccc2nc(C(C)n3cc(C(=O)NCc4c(C)cc5c(N)nccc5c4C)cn3)cn2c1", "note": "(stereo not shown) [Example 13, N-((1-amino-5,7-dimethylisoquinolin-6-yl)methyl)-1-(1-(6-methylimidazo[1,2-a]pyridin-2-yl)ethyl)-1H-pyrazole-4-carboxamide]", "EC50": "< 1"},
      {"smiles": "Cc1cc2c(N)nccc2c(C)c1CNC(=O)c1cnn(C(CN)c2ccccc2)c1", "note": "(stereo not shown) [Example 180, 1-(2-amino-1-phenylethyl)-N-((1-amino-5,7-dimethylisoquinolin-6-yl)methyl)-1H-pyrazole-4-carboxamide]", "EC50": "100 to 1000"},
      {"smiles": "Cc1cc2c(N)nccc2c(C)c1CNC(=O)c1cnn(Cc2ccc(CC(=O)N(C)C)cc2)c1", "note": "[Example 63, N-((1-amino-5,7-dimethylisoquinolin-6-yl)methyl)-1-(4-(2-(dimethylamino)-2-oxoethyl)benzyl)-1H-pyrazole-4-carboxamide]", "EC50": "< 1"},
      {"smiles": "Cc1cc2c(N)nccc2c(C)c1CNc1cc(OCc2nc3cc(C4CC4)ccc3s2)ncn1", "note": "[Example 282, 6-(((6-((5-cyclopropylbenzo[d]thiazol-2-yl)methoxy)pyrimidin-4-yl)amino)methyl)-5,7-dimethylisoquinolin-1-amine]", "EC50": "100 to 1000"},
      {"smiles": "Cc1cc2c(N)nccc2c(C)c1CNc1cc2nn(Cc3ccc(Cn4cccn4)cc3)cc2cn1", "note": "[Example I-459, 6-(((2-(4-((1H-pyrazol-1-yl)methyl)benzyl)-2H-pyrazolo[4,3-c]pyridin-6-yl)amino)methyl)-5,7-dimethylisoquinolin-1-amine]", "EC50": "10 to 100"},
      {"smiles": "Cc1cc2c(N)nccc2c(C)c1CNc1cnnc(NCc2ccc(Cn3ccccc3=O)cc2)c1", "note": "[Example 537, 1-(4-(((5-(((1-amino-5,7-dimethylisoquinolin-6-yl)methyl)amino)pyridazin-3-yl)amino)methyl)benzyl)pyridin-2(1H)-one]", "EC50": "< 1"},
      {"smiles": "Cc1cc2c(N)nccc2c(C)c1CNc1cc(OCc2cccc(-n3ccccc3=O)c2)ncn1", "note": "[Example 370, 1-(3-(((6-(((1-amino-5,7-dimethylisoquinolin-6-yl)methyl)amino)pyrimidin-4-yl)oxy)methyl)phenyl)pyridin-2(1H)-one]", "EC50": "100 to 1000"},
      {"smiles": "Cc1cc2c(N)nccc2c(C)c1CNc1cc(=O)n(Cc2cn3c(=O)n(C4CC4)ccc3n2)cn1", "note": "[Example 505, 2-((4-(((1-amino-5,7-dimethylisoquinolin-6-yl)methyl)amino)-6-oxopyrimidin-1(6H)-yl)methyl)-6-cyclopropylimidazo[1,2-c]pyrimidin-5(6H)-one]", "EC50": "> 1000"},
      {"smiles": "Cc1cc2c(N)nccc2c(C)c1CNC(=O)c1cnn(Cc2nc3ccccc3n2C)c1", "note": "[Example 75, N-((1-amino-5,7-dimethylisoquinolin-6-yl)methyl)-1-((1-methyl-1H-benzo[d]imidazol-2-yl)methyl)-1H-pyrazole-4-carboxamide]", "EC50": "100 to 1000"},
      {"smiles": "CNc1nccc2c(C)c(CNC(=O)c3cnn(Cc4cn5cc(C6CC6)ccc5n4)c3)c(C)cc12", "note": "[Example 134, 1-((6-cyclopropylimidazo[1,2-a]pyridin-2-yl)methyl)-N-((5,7-dimethyl-1-(methylamino)isoquinolin-6-yl)methyl)-1H-pyrazole-4-carboxamide]", "EC50": "< 1"},
      {"smiles": "Cc1cc2c(N)nccc2c(C)c1CNc1cc2c(ccn2Cc2ccc3ncccc3c2)cn1", "note": "[Example 528, 5,7-dimethyl-6-(((1-(quinolin-6-ylmethyl)-1H-pyrrolo[3,2-c]pyridin-6-yl)amino)methyl)isoquinolin-1-amine]", "EC50": "> 1000"},
      {"smiles": "Cc1ccc2nc(Cn3cc(C(=O)NCc4c(C)cc5c(N(C(=O)OCc6ccccc6)C(=O)OCc6ccccc6)nccc5c4C)cn3)cn2c1", "note": "[Example 4, benzyl ((benzyloxy)carbonyl)(5,7-dimethyl-6-((1-((6-methylimidazo[1,2-a]pyridin-2-yl)methyl)-1H-pyrazole-4-carboxamido)methyl)isoquinolin-1-yl)carbamate]", "EC50": "> 1000"},
      {"smiles": "Cc1cc2c(N)nccc2c(C)c1CNc1cc(OCc2cnc3ccc(F)cc3c2)cnn1", "note": "[Example 415, 6-(((5-((6-fluoroquinolin-3-yl)methoxy)pyridazin-3-yl)amino)methyl)-5,7-dimethylisoquinolin-1-amine]", "EC50": "< 1"},
      {"smiles": "Cc1cc2c(N)nccc2c(C)c1CNC(=O)c1cnn(Cc2ccc3c(-n4cccn4)cccc3c2)c1", "note": "[Example 112, 1-((5-(1H-pyrazol-1-yl)naphthalen-2-yl)methyl)-N-((1-amino-5,7-dimethylisoquinolin-6-yl)methyl)-1H-pyrazole-4-carboxamide]", "EC50": "< 1"},
      {"smiles": "Cc1cc2c(N)nccc2c(C)c1CNc1cc(OCc2ccc(Cn3ccccc3=O)cc2)c(Cl)cn1", "note": "[Example I-456, 1-(4-(((2-(((1-amino-5,7-dimethylisoquinolin-6-yl)methyl)amino)-5-chloropyridin-4-yl)oxy)methyl)benzyl)pyridin-2(1H)-one]", "EC50": "1 to 10"},
      {"smiles": "Cc1cc2c(N)nccc2c(C)c1CNC(=O)c1cnn(Cc2ccc(CC(=O)N3CCCC3)cc2)c1", "note": "[Example 232, N-((1-amino-5,7-dimethylisoquinolin-6-yl)methyl)-1-(4-(2-oxo-2-(pyrrolidin-1-yl)ethyl)benzyl)-1H-pyrazole-4-carboxamide]", "EC50": "< 1"},
      {"smiles": "CCOC(=O)N(Cc1ccc(Cn2ccccc2=O)cc1)c1cc(NCc2c(C)cc3c(N)nccc3c2C)ncn1", "note": "[Example I-480, ethyl (6-(((1-amino-5,7-dimethylisoquinolin-6-yl)methyl)amino)pyrimidin-4-yl)(4-((2-oxopyridin-1(2H)-yl)methyl)benzyl)carbamate]", "EC50": "100 to 1000"},
      {"smiles": "COCc1nn(Cc2cnc(N3CCCC3)nc2)cc1C(=O)NCc1c(C)cc2c(N)nccc2c1C", "note": "[Example 162, N-((1-amino-5,7-dimethylisoquinolin-6-yl)methyl)-3-(methoxymethyl)-1-((2-(pyrrolidin-1-y1)pyrimidin-5-yl)methyl)-1H-pyrazole-4-carboxamide]", "EC50": "< 1"},
      {"smiles": "CCOC(=O)Nc1nccc2c(C)c(CNC(=O)c3cnn(Cc4ccc5ncc(Cl)cc5c4)c3)c(C)cc12", "note": "[Example 132, ethyl (6-((1-((3-chloroquinolin-6-yl)methyl)-1H-pyrazole-4-carboxamido)methyl)-5,7-dimethylisoquinolin-1-yl)carbamate]", "EC50": "10 to 100"},
      {"smiles": "Cc1cc2c(N)nccc2c(C)c1CNc1cc(N(Cc2ccc(Cn3cccn3)cc2C(F)(F)F)N=O)ncn1", "note": "[Example 381, N-(4-((1H-pyrazol-1-yl)methyl)-2-(trifluoromethyl)benzyl)-N-(6-(((1-amino-5,7-dimethylisoquinolin-6-yl)methyl)amino)pyrimidin-4-yl)nitrous amide]", "EC50": "10 to 100"},
      {"smiles": "Cc1cc2c(N)nccc2c(C)c1CNc1cc(NCc2cn3cc(C#N)ccc3n2)ncn1", "note": "[Example 332, 2-(((6-(((1-amino-5,7-dimethylisoquinolin-6-yl)methyl)amino)pyrimidin-4-yl)amino)methyl)imidazo[1,2-a]pyridine-6-carbonitrile]", "EC50": "1 to 10"},
      {"smiles": "CCOC(=O)CCc1nc(NCc2c(C)cc3c(N)nccc3c2C)cc(OCc2cn3cc(C4CC4)cnc3n2)n1", "note": "[Example 291, ethyl 3-(4-(((1-amino-5,7-dimethylisoquinolin-6-yl)methyl)amino)-6-((6-cyclopropylimidazo[1,2-a]pyrimidin-2-yl)methoxy)pyrimidin-2-yl)propanoate]", "EC50": "1 to 10"},
      {"smiles": "Cc1cc2c(N)nccc2c(C)c1CNc1cc(OCc2ccc3ccccc3c2)cnn1", "note": "[Example 252, 5,7-dimethyl-6-(((5-(naphthalen-2-ylmethoxy)pyridazin-3-yl)amino)methyl)isoquinolin-1-amine]", "EC50": "10 to 100"}
    ]}
  ]
}
